Measured values taken from PMC8512844, “Olive Pomace Phenolic Compounds Stability and Safety Evaluation: From Raw Material to Future Ophthalmic Applications” (Molecules, 2021).

Columns and labels:
[1] = Long-term storage stability of aqueous solutions (CPMP/ICH/2736/99), HPLC-DAD relative quantification; format: physicochemical; conditions: for stability as pure solution: first 30 days; for kobs (first-order degradation rate constant) / t1/2 (half-time period) / tlag (lag time): pure aqueous solution
Protocol: According to the guidance CPMP/ICH/2736/99, aqueous solutions of HT, OL, OPT3 extract, and CONV extract were stored at four different conditions of temperature (ambient, refrigerated, […], and intermediate) and humidity. The conditions were: T = 5 ± 3 °C (with no humidity), T = 25 ± 2 °C (with 60 ± 5% RH), T = 30 ± 2 °C (with 65 ± 5% RH) and T = 40 ± 2 °C (with 75 ± 5% RH) up to a final duration of 6 months. For OPT3, HT was relatively quantified as % with respect to the concentration (C0) at the initial time (t0), while for CONV both % HT and % OL content were calculated similarly. […] The stability of up to 6 months is presented in the Figure S1 of the Supplementary Material. […] The lag time (tlag) represents the time that the concentration of the compound remains constant and, if present, is determined as the intercept of the initial degradation time with the initial concentration value. The half-life period (t1/2) is calculated from Equation (2). The degradation constant (kobs), the t1/2, and the time lag (tlag) together with the correlation coefficient (R^2) for each compound and storage condition are presented in Table 5. ln(C0/Ct) = kobs(t - tlag)(1) t1/2 = ln(2)/k + tlag(2) The quantitative determination of HT, TY, and OL was performed by an HPLC-DAD system: Waters e2695 separation module with an autosampler (20 μL injection volume) and a quaternary pump, coupled with Waters 2998 photodiode array detector set at 280 nm (Waters®, Dublin, Ireland). A C18 Mediterranean Sea column (250 × 4.6 mm, 5 μm) (Teknokroma Analítica S.A., Barcelona, Spain) at 35 °C connected with an OptiGuard 1 mm guard column (Sigma-Aldrich, St. Louis, MO, USA) were used. The gradient method, together with the eluents and the elution program used, were selected according to […] et al.. Calibration curves for OL (range: 12.5-1250 mg/L, linearity: […] R^2 = 0.9969) were prepared, using standard solutions of the compounds in DMSO, and analyzed in the same conditions as the samples. Compounds in the extracts were identified by comparing the retention time and the UV spectra of the samples with those of the standard solutions, while MS spectra were also used to confirm identification (see 3.7.1. for experimental conditions). […] Samples and calibration curves of standard solutions were analyzed within the same day. For the 6-months storage stability, relative quantification was performed with respect to the initial quantity t0 of each analyte. For data acquisition and processing, Empower® 3 software (Waters®, Dublin, Ireland) was used. Briefly, all compounds and extracts were dissolved in Milli-Q water, as high mineralization could increase the degradation of these substances. Additionally, according to the bibliography, lower concentrations could accelerate the decomposition of a compound. […] All solutions were filtered through a 0.20 μm polyvinylidene fluoride filter. […] To fix the desired humidity for each temperature, appropriate salts have been used according to the bibliography. […] The vials were placed in big glass containers, together with a sufficient quantity of each salt. Then, they were closed airtight and left in different rooms of controlled temperature and protected from light for 6 months. […] For CONV, HT and OL content were measured, while for OPT3 only HT content was calculated due to the lack of OL in this extract. All samples were analyzed in triplicate and the results are expressed as mean of the percentage with respect to the initial concentration t0 ± SD.

[2] = tested on: human corneal epithelial (HCE) cells; experiment: In vitro genotoxicity, alkaline comet assay; format: cell-based; conditions: 24 h, 0.8 mg/mL CONV, 0.4 mg/mL OPT3, 300 μM OL, 100 μM HT, 5 μM + 50 μM OL+HT
Source text: (§1) According to the ICH guideline S2 (R1), comet assay evaluates the cell DNA damage under a neutral or alkaline electrophoretic field. This leads to the separation between intact and damaged cellular DNA, creating the typical “comet tail” visible from a microscope. By measuring this tail, the extent of the DNA damage can be estimated. In this study, we applied alkaline electrophoresis, because it is more sensitive and can detect smaller amounts of DNA damages, including single and double-stranded DNA breaks, alkali labile DNA adducts, and most oxidative DNA damage.
(§2) Two different human ocular surface cell lines were selected for this assay: HCE and the IM-ConjEpi. The two selected OP extracts (CONV and OPT3) were tested for their in vitro genotoxicity on both cell lines, together with the two principal pure olive compounds OL and HT, alone or in combination (OL+HT). For each compound or extract, the maximum allowable concentration was selected to be tested, based on the results of their in vitro cytotoxicity on the same cell lines, as previously described.
(§3) HCE is an immortalized human corneal epithelial cell line, kindly offered by Dr. Arto Urti (University of Helsinki, Finland). It was cultured in DMEM/F-12 + GlutaMax supplemented with 10% fetal bovine serum, 10 ng/mL human epithelial growth factor, 5 μg/mL human insulin and antibiotics (100 U/mL penicillin + 0.1 mg/mL streptomycin). IM-ConjEpi was supplied by Innoprot (Derio, Spain. Ref. P10870-IM) and is an SV40- Large T Antigen immortalized human conjunctival epithelial cell line. It was cultured in DMEM/F-12 + GlutaMax supplemented with 10% fetal bovine serum, 10 ng/mL human epithelial growth factor, 1 μg/mL bovine insulin and antibiotics ([…]). HCE cell line was used from passage 25 to 35, while IM-ConjEpi from passage 10 to 20.
(§4) The cells were incubated at 37 °C and 5:95 = CO2:air atmosphere ratio, while their medium was changed every second day. Observations through a phase-contrast microscope were carried out daily.
(§5) For the in vitro tests, HT, OL, CONV, and OPT3 were dissolved in culture medium (DMEM/F-12 + GlutaMax, without any supplement) the day of the experiment. As previously described, CONV was produced by conventional solid–liquid extraction using freeze-dried material without any further pretreatment. OPT3 was generated by PLE extraction using freeze-dried material previously defatted with scCO2. The part of the extracts not dissolved to the culture medium was filtered through a 0.20 μm polyvinylidene fluoride sterile filter. The in vitro concentrations were selected according to a previous study, which described the maximum allowable non-toxic concentration of HT, OL, CONV, and OPT3 on the two ocular surface cell lines used. […]

[3] = tested on: immortalized human conjunctival epithelial (IM-ConjEpi) cells; experiment: In vitro genotoxicity, alkaline comet assay; format: cell-based; conditions: 24 h, 0.8 mg/mL CONV, 0.4 mg/mL OPT3, 300 μM OL, 100 μM HT, 5 μM + 50 μM OL+HT
Source text: as §1, §2, §3, §4, §5

## C/C=C1/[C@H](O[C@@H]2O[C@H](CO)[C@@H](O)[C@H](O)[C@H]2O)OC=C(C(=O)OC)[C@H]1CC(=O)OCCc1ccc(O)c(O)c1 [OL, oleuropein]
[1]; 5 °C or 25 °C
  stability as pure solution: remains at high levels
[1]; 25 °C or below
  stability as standard solution: stable for up to 1 month
[1]; aqueous solution of the pure compound, pure solution, temperature above 30 °C, read-out: t1/2 (time to reduce the concentration to half of the initial value) (converted)
  half-life at 113 mg/L: ~72 h
[1]; T = 5 °C/no humidity
  kobs (first-order degradation rate constant): 0.0099 day⁻¹
  t1/2 (half-time period): 81.3 days
  tlag (lag time): 11.3 days
[1]; T = 25 °C/60% RH
  kobs (first-order degradation rate constant): 0.0065 day⁻¹
  t1/2 (half-time period): 116.5 days
  tlag (lag time): 9.9 days
[1]; T = 30 °C/65% RH
  kobs (first-order degradation rate constant): 0.4022 day⁻¹
  t1/2 (half-time period): 1.7 days
  tlag (lag time): 0 days
[1]; T = 40 °C/75% RH
  kobs (first-order degradation rate constant): 0.3658 day⁻¹
  t1/2 (half-time period): 1.9 days
  tlag (lag time): 0 days
[1]; pure solution, temperature values below 25 °C
  time the compound remains stable: approximately 11 days
[1]; standard solution, 5 °C and 25 °C, 6 months
  final content compared to t0: ca. 35%
[1]; temperature values above 30 °C
  stability as pure solution: highly unstable
[2]
  Genotoxic effect (%TDNA) versus control group: No statistically significant differences
[3]
  Genotoxic effect (%TDNA) versus control group: No statistically significant differences

## OCCc1ccc(O)c(O)c1 [HT, hydroxytyrosol]
[1]; 5 °C, first month
  stability as standard solution: stable at a high percentage for the entire month
[1]; 25 °C
  time from which the standard solution is completely degraded: fourth month
[1]; 30 °C and 40 °C
  time from which the standard solution is completely degraded: third month
[1]; T = 5 °C/no humidity
  kobs (first-order degradation rate constant): 0.0069 day⁻¹
  t1/2 (half-time period): 101.5 days
  tlag (lag time): 1.0 days
[1]; T = 25 °C/60% RH
  kobs (first-order degradation rate constant): 0.0337 day⁻¹
  t1/2 (half-time period): 21.6 days
  tlag (lag time): 1.0 days
[1]; T = 30 °C/65% RH
  kobs (first-order degradation rate constant): 0.1068 day⁻¹
  t1/2 (half-time period): 6.5 days
  tlag (lag time): 0 days
[1]; T = 40 °C/75% RH
  kobs (first-order degradation rate constant): 0.1234 day⁻¹
  t1/2 (half-time period): 5.6 days
  tlag (lag time): 0 days
[2]
  Genotoxic effect (%TDNA) versus control group: No statistically significant differences
[3]
  Genotoxic effect (%TDNA) versus control group: No statistically significant differences
